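Interpolation was linear, between the two tested concentrations surrounding the appropriate level; five concentrations were tested over 48 hours in 96-well plates. GI50 is the concentration that inhibits growth by half. TGI is the concentration that stops growth completely.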
Experiments:
Assay in all cases: growth of human tumour cells (NCI), 48 h
786-0 renal = test system: 786-0 renal
A498 renal = test system: A498 renal
A549 NSCLC = test system: A549 NSCLC
ACHN renal = test system: ACHN renal
BT-549 breast = test system: BT-549 breast
CAKI-1 renal = test system: CAKI-1 renal
CCRF-CEM leukemia = test system: CCRF-CEM leukemia
COLO 205 colon = test system: COLO 205 colon
DU-145 prostate = test system: DU-145 prostate
EKVX NSCLC = test system: EKVX NSCLC
HCC-2998 colon = test system: HCC-2998 colon
HCT-116 colon = test system: HCT-116 colon
HCT-15 colon = test system: HCT-15 colon
HL-60(TB) leukemia = test system: HL-60(TB) leukemia
HOP-62 NSCLC = test system: HOP-62 NSCLC
HOP-92 NSCLC = test system: HOP-92 NSCLC
HS 578T breast = test system: HS 578T breast
HT29 colon = test system: HT29 colon
IGROV1 ovarian = test system: IGROV1 ovarian
K-562 leukemia = test system: K-562 leukemia
KM12 colon = test system: KM12 colon
LOX IMVI melanoma = test system: LOX IMVI melanoma
M14 melanoma = test system: M14 melanoma
MALME-3M melanoma = test system: MALME-3M melanoma
MCF7 breast = test system: MCF7 breast
MDA-MB-231 breast = test system: MDA-MB-231 breast
MDA-MB-435 = test system: MDA-MB-435
MOLT-4 leukemia = test system: MOLT-4 leukemia
NCI-H226 lung = test system: NCI-H226 lung
NCI-H23 lung = test system: NCI-H23 lung
NCI-H460 lung = test system: NCI-H460 lung
NCI-H522 lung = test system: NCI-H522 lung
NCI/ADR-RES ovarian = test system: NCI/ADR-RES ovarian
OVCAR-3 ovarian = test system: OVCAR-3 ovarian
OVCAR-4 ovarian = test system: OVCAR-4 ovarian
OVCAR-5 ovarian = test system: OVCAR-5 ovarian
OVCAR-8 ovarian = test system: OVCAR-8 ovarian
PC-3 prostate = test system: PC-3 prostate
RPMI-8226 leukemia = test system: RPMI-8226 leukemia
RXF 393 renal = test system: RXF 393 renal
SF-268 CNS = test system: SF-268 CNS
SF-295 CNS = test system: SF-295 CNS
SF-539 CNS = test system: SF-539 CNS
SK-MEL-2 melanoma = test system: SK-MEL-2 melanoma
SK-MEL-28 melanoma = test system: SK-MEL-28 melanoma
SK-MEL-5 melanoma = test system: SK-MEL-5 melanoma
SK-OV-3 ovarian = test system: SK-OV-3 ovarian
SN12C renal = test system: SN12C renal
SNB-19 CNS = test system: SNB-19 CNS
SNB-75 CNS = test system: SNB-75 CNS
SR leukemia = test system: SR leukemia
SW-620 colon = test system: SW-620 colon
T-47D breast = test system: T-47D breast
TK-10 renal = test system: TK-10 renal
U251 CNS = test system: U251 CNS
UACC-257 melanoma = test system: UACC-257 melanoma
UACC-62 melanoma = test system: UACC-62 melanoma
UO-31 renal = test system: UO-31 renal

ClCc1ccc(-c2ccc(Cn3cnc4nc(Cl)nc(Cl)c43)cc2)cc1
GI50 (786-0 renal): 17.1 µM
TGI (786-0 renal): 31.7 µM
GI50 (A498 renal): 17.7 µM
TGI (A498 renal): 32 µM
GI50 (A549 NSCLC): 3.53 µM
TGI (A549 NSCLC): > 100 µM
GI50 (ACHN renal): 5.36 µM
TGI (ACHN renal): 17 µM
GI50 (BT-549 breast): 2.72 µM
TGI (BT-549 breast): 6.59 µM
GI50 (CAKI-1 renal): 2.21 µM
TGI (CAKI-1 renal): 4.99 µM
GI50 (CCRF-CEM leukemia): 2.16 µM
TGI (CCRF-CEM leukemia): 4.86 µM
GI50 (COLO 205 colon): 4.02 µM
TGI (COLO 205 colon): 18.2 µM
GI50 (DU-145 prostate): 2.71 µM
TGI (DU-145 prostate): 7.6 µM
GI50 (EKVX NSCLC): 15.9 µM
TGI (EKVX NSCLC): 29.5 µM
GI50 (HCC-2998 colon): 4.63 µM
TGI (HCC-2998 colon): 21.7 µM
GI50 (HCT-116 colon): 3.85 µM
TGI (HCT-116 colon): 13.4 µM
GI50 (HCT-15 colon): 3.9 µM
TGI (HCT-15 colon): 13.9 µM
GI50 (HL-60(TB) leukemia): 12.3 µM
TGI (HL-60(TB) leukemia): > 100 µM
GI50 (HOP-62 NSCLC): 13.5 µM
TGI (HOP-62 NSCLC): 48.8 µM
GI50 (HOP-92 NSCLC): 3.82 µM
TGI (HOP-92 NSCLC): 8.78 µM
GI50 (HS 578T breast): 5.81 µM
TGI (HS 578T breast): 40.7 µM
GI50 (HT29 colon): 3.54 µM
TGI (HT29 colon): 12.4 µM
GI50 (IGROV1 ovarian): 14.3 µM
TGI (IGROV1 ovarian): 34.8 µM
GI50 (K-562 leukemia): 5.59 µM
TGI (K-562 leukemia): 44.1 µM
GI50 (KM12 colon): 3.69 µM
TGI (KM12 colon): 12.8 µM
GI50 (LOX IMVI melanoma): 1.86 µM
TGI (LOX IMVI melanoma): 3.3 µM
GI50 (M14 melanoma): 18.7 µM
TGI (M14 melanoma): 36.8 µM
GI50 (MALME-3M melanoma): 3.33 µM
TGI (MALME-3M melanoma): 7.88 µM
GI50 (MCF7 breast): 3.18 µM
TGI (MCF7 breast): 10.8 µM
GI50 (MDA-MB-231 breast): 11.1 µM
TGI (MDA-MB-231 breast): 23.7 µM
GI50 (MDA-MB-435): 5.25 µM
TGI (MDA-MB-435): 20.7 µM
GI50 (MOLT-4 leukemia): 3.36 µM
TGI (MOLT-4 leukemia): 10.9 µM
GI50 (NCI-H226 lung): 13.8 µM
TGI (NCI-H226 lung): 26.7 µM
GI50 (NCI-H23 lung): 7.32 µM
TGI (NCI-H23 lung): 24.3 µM
GI50 (NCI-H460 lung): 7.85 µM
TGI (NCI-H460 lung): 24.6 µM
GI50 (NCI-H522 lung): 12 µM
TGI (NCI-H522 lung): 36.4 µM
GI50 (NCI/ADR-RES ovarian): 3.97 µM
TGI (NCI/ADR-RES ovarian): 70.4 µM
GI50 (OVCAR-3 ovarian): 2.19 µM
TGI (OVCAR-3 ovarian): 4.59 µM
GI50 (OVCAR-4 ovarian): 15 µM
TGI (OVCAR-4 ovarian): 28.3 µM
GI50 (OVCAR-5 ovarian): 19.6 µM
TGI (OVCAR-5 ovarian): 36 µM
GI50 (OVCAR-8 ovarian): 2.41 µM
TGI (OVCAR-8 ovarian): 6.52 µM
GI50 (PC-3 prostate): 4.71 µM
TGI (PC-3 prostate): 16.7 µM
GI50 (RPMI-8226 leukemia): 3.81 µM
TGI (RPMI-8226 leukemia): 27.9 µM
GI50 (RXF 393 renal): 2.5 µM
TGI (RXF 393 renal): 5 µM
GI50 (SF-268 CNS): 3.6 µM
TGI (SF-268 CNS): 15.2 µM
GI50 (SF-295 CNS): 14.2 µM
TGI (SF-295 CNS): 30.7 µM
GI50 (SF-539 CNS): 2.3 µM
TGI (SF-539 CNS): 5.06 µM
GI50 (SK-MEL-2 melanoma): 7.9 µM
TGI (SK-MEL-2 melanoma): 21.2 µM
GI50 (SK-MEL-28 melanoma): 2.38 µM
TGI (SK-MEL-28 melanoma): 5.16 µM
GI50 (SK-MEL-5 melanoma): 4.55 µM
TGI (SK-MEL-5 melanoma): 16.5 µM
GI50 (SK-OV-3 ovarian): 19.7 µM
TGI (SK-OV-3 ovarian): 33.9 µM
GI50 (SN12C renal): 3.06 µM
TGI (SN12C renal): 12.3 µM
GI50 (SNB-19 CNS): 4.58 µM
TGI (SNB-19 CNS): 15.2 µM
GI50 (SNB-75 CNS): 4.5 µM
TGI (SNB-75 CNS): 15.2 µM
GI50 (SR leukemia): 2.39 µM
TGI (SR leukemia): 7.46 µM
GI50 (SW-620 colon): 2.22 µM
TGI (SW-620 colon): 4.75 µM
GI50 (T-47D breast): 7.03 µM
TGI (T-47D breast): 49.3 µM
GI50 (TK-10 renal): 6.88 µM
TGI (TK-10 renal): 20.4 µM
GI50 (U251 CNS): 3.82 µM
TGI (U251 CNS): 11.3 µM
GI50 (UACC-257 melanoma): 3.04 µM
TGI (UACC-257 melanoma): 9.88 µM
GI50 (UACC-62 melanoma): 4.13 µM
TGI (UACC-62 melanoma): 14.4 µM
GI50 (UO-31 renal): 16.7 µM
TGI (UO-31 renal): 34.1 µM

From PubChem BioAssay (NCI)
